From paper PMC7400207, “It Takes Two: Dimerization Is Essential for the Broad-Spectrum Predatory and Defensive Activities of the Venom Peptide Mp1a from the Jack Jumper Ant Myrmecia pilosula” (Biomedicines, 2020)
Marks after values point to notes of the source that are not given here. Where no end group is shown, it is not given here.

What was measured:
human red blood cells = conditions: cited from earlier work
Procedure: (§1) Table 2 Summary of bioassay data for synthetic Mp1a and analogues, including effective concentration (EC50) for activation of F11 cells, concentrations that caused 50% inhibition (IC50) for inhibition of larval development of H. contortus; median lethal dose (LD50) for lethal insecticidal effects on D. melanogaster; concentrations required to induce 50% cell death (CC50) for effects on viability o | column: Hemolysis (HC50 µM) ^b

HEK293 cells = conditions: HEK293, 24 h, resazurin; cited from earlier work
Procedure: as §1, with “Cytotoxicity (CC50” for “Hemolysis (HC50”

Haemonchus contortus = assay: microbe, parasite or virus in culture; type: cell-based; conditions: H. contortus Kirby isolate, egg to infective L3, 6 days, 26 °C; three experiments of duplicate assays, ± SEM; for 1a the component at higher concentrations (about 90% of population); read-out: Anthelmintic Activity (IC50), inhibition of larval development
Procedure: Sheep were infected with H. contortus Kirby isolate (field isolate from the University of New England Kirby Research Farm in 1986; susceptible to all commercial anthelmintics) and housed at the Commonwealth Scientific and Industrial Research Organisation (CSIRO) FD McMaster Laboratory, Armidale, NSW. All animal procedures were approved by the FD McMaster Animal Ethics Committee, CSIRO (Approval Number AEC 17/12, approval date 15.6.2017). Eggs were prepared from overnight fecal collection as described. In brief, feces were filtered through mesh filters, settled, and supernatant removed by vacuum. Eggs were recovered by density centrifugation using 10 and 25% (w/v) sucrose solutions, centrifuged at 650× g for 7 min. Eggs were recovered from the interface of the two sucrose layers, rinsed with distilled water, sterilized with bleach, rinsed again, and diluted to 4500 eggs/mL. Tylosin tartrate (800 μg/mL) and amphotericin B (25.0 μg/mL) were added, and eggs were used immediately for larval development assays.
Assays were conducted using 96-well microtitre plates, with each well containing 50 μL of 2% agar, 20 μL of egg solution and 20 μL of peptide solution in water. The commercial anthelmintic levamisole (Sigma Aldrich) was used as a positive control (final 1% v/v). Negative controls contained equivalent volumes of water or DMSO (final 1% v/v). Plates were incubated at 26 °C for six days. After 24 h, each well was fed with 10 μL of a nutrient solution containing Escherichia coli XL1-Blue1 (grown overnight at 37 °C) and growth medium. The growth medium consisted of yeast extract (1% w/v), Earle’s salt solution (10% v/v), saline solution (0.9% NaCl, w/v), and sodium bicarbonate (1 mM) in Luria-Bertani medium (LB). Larvae were killed and stained with Lugol’s iodine solution after six days. Larvae that had developed to the infective L3 stage were counted, and the numbers in treated assay wells were expressed as a percentage of the number of infective L3 stage larvae in multiple control wells. Concentrations that caused 50% inhibition (IC50 values) were calculated from three experiments of duplicate assays.

Drosophila melanogaster [1] = assay: Drosophila melanogaster microinjection assay; type: in vivo; conditions: intrathoracic injection, 50 nL, adult female flies, lethality at 24 h; three dose-response curves, ± SEM
Procedure: The insecticidal activity of the chemically synthesized 1a and analogues thereof were determined by injection into adult female D. melanogaster aged 3–5 days (mass 0.7–0.9 mg) as described previously. Analogues were dissolved in water and intrathoracically injected using pulled glass capillaries at a volume of 50 nL per fruit fly, and the results were compared against an equivalent injection volume of water alone. All injections were performed in the morning or early afternoon. At 24 h post-injection flies were monitored for lethality. Dose–response curves were constructed using 7–10 doses per analogue (each dose tested in eight flies) and three separate dose–response curves were constructed for each analogue. The lethality in the groups receiving the analogues were adjusted using the respective control group lethality using the Henderson-Tilton formula [20]. The median lethal dose (LD50) of each analogue was calculated based on the three dose–response curves using GraphPad Prism 8.0 [21]. One-way ANOVA followed by Dunnett’s multiple comparison test were used to compare LD50 values.

F11 cells = assay: FLIPR calcium assay, activation of F11 cells; type: cell-based; conditions: F11 cells, FLIPR; for Neuronal Cell Activation (EC50): Calcium 4 dye, max-min fluorescence in 300 s after peptide addition, PSS with 0.1% BSA, mean ± SEM, triplicate
Procedure: F11 cells were cultured as previously described. Cells were maintained on Ham’s F12 media supplemented with 10% fetal bovine serum (FBS), 100 µM hypoxanthine, 0.4 µM aminopterin, and 16 µM thymidine (Hybri-MaxTM, Sigma Aldrich, North Ryde, Australia). Then, 384-well imaging plates (Corning) were seeded 48 h prior to imaging resulting in 90–95% confluence at imaging. Cells were incubated for 30 min with the Calcium 4 assay component A according to the manufacturer’s instructions (Molecular Devices, Sunnyvale, CA, USA) in physiological salt solution (PSS; composition in mM: 140 NaCl, 11.5 D-glucose, 5.9 KCl, 1.4 MgCl2, 1.2 NaH2PO4, 5 NaHCO3, 1.8 CaCl2, 10 HEPES) at 37°C. Fluorescence was measured using a fluorescent imaging plate reader (FLIPR^TETRA) equipped with a CCD camera (Excitation: 470–490 nm, Emission: […]) (Molecular Devices, Sunnyvale, CA, USA). Signals were read every second for 10 s before, and 300 s after the addition of peptides in PSS supplemented with 0.1% bovine serum albumin. All data are the mean ± SEM of assays performed in triplicate. Maximum–minimum fluorescence in the 300 s period after peptide addition was recorded as the response. Concentration–response data were fitted with a four-parameter Hill equation (variable slope) using GraphPad Prism 8 to obtain effective concentration (EC50) values.

[2] = tested on: mouse dorsal root ganglion (DRG) cells; assay: Calcium imaging of mammalian sensory neurons; type: cell-based; conditions: 1 µM peptide, Fluo-4 calcium imaging, neuronal and non-neuronal cells
Procedure: Calcium imaging of a heterogenous population of mouse dorsal root ganglion (DRG) sensory neurons was performed as previously described. In brief, dorsal root ganglion (DRG) cells isolated from 4–8-week-old male C57BL/6 mice under ethics approval TRI/IMB/093/17 (University of Queensland Animal Ethics Committee, approval date 31/03/2017) were dissociated and then plated in Dulbecco’s modified Eagle’s medium (Gibco, Grand Island, NY, USA) containing 10% fetal bovine serum (FBS; Assaymatrix, Melbourne, Australia) and penicillin/streptomycin (Gibco) on a 96-well poly-D-lysine–coated culture plate (Corning, Lowell, MA, USA), and maintained overnight. Cells were loaded with Fluo-4 AM calcium indicator as per the manufacturer’s instructions (Thermo Fisher Scientific, Grand Island, NY, USA). After loading for 1 h, the dye solution was replaced with assay solution (Hanks’ balanced salt solution and 20 mM HEPES). Fluorescence corresponding to intracellular calcium ([Ca^2+]i) of typically 100–150 DRG cells per experiment was monitored in parallel using a Nikon Ti-E deconvolution inverted microscope, equipped with a Lumencor Spectra LED light source. Images were acquired at a 20× objective at one frame/s (excitation 485 nm; emission 521 nm). For each experiment, baseline fluorescence was monitored for 30 s and then a wash of assay solution was applied.

trypanosomes = conditions: cited from earlier work
Excerpt: However, the anthelmintic activity of the dimers was only observed at concentrations 10-fold higher than required for neuronal cell activation, cytotoxicity and hemolysis.

Drosophila melanogaster [3] = conditions: same assay; cited from earlier work

Compound | Hemolysis (HC50) (human red blood cells) | Cytotoxicity (CC50) (HEK293 cells) | IC50 (Haemonchus contortus) | Insecticidal Activity (LD50) (Drosophila melanogaster [1]) | Neuronal Cell Activation (EC50) (F11 cells) | Effect on [Ca2+]i of DRG cells [2] | Concentration at which cytolysis (rapid increase in fluorescence followed by decrease to or below baseline) was observed (F11 cells) | Selectivity for trypanosomes over human red blood cells (trypanosomes) | LD50 (insecticidal potency) (Drosophila melanogaster [3])
CC[C@H](C)[C@H](N)C(=O)N[C@@H](CC(=O)O)C(=O)N[C@@H](Cc1c[nH]c2ccccc12)C(=O)N[C@@H](CCCCN)C(=O)N[C@@H](CCCCN)C(=O)N[C@H](C(=O)N[C@@H](CC(=O)O)C(=O)N[C@@H](Cc1c[nH]c2ccccc12)C(=O)N[C@@H](CCCCN)C(=O)N[C@@H](CCCCN)C(=O)N[C@H](C(=O)N[C@@H](CO)C(=O)N[C@@H](CCCCN)C(=O)N[C@@H](CCCCN)C(=O)N[C@H](C(=O)N[C@H]1CSSC[C@@H](C(=O)N[C@@H](CCCCN)C(=O)N[C@@H](Cc2ccccc2)C(=O)N[C@@H](CC(C)C)C(N)=O)NC(=O)[C@H](C)NC(=O)[C@H](CCCCN)NC(=O)[C@H](CC(C)C)NC(=O)[C@H](CCSC)NC(=O)[C@H](C(C)C)NC(=O)[C@H](CCCCN)NC1=O)[C@@H](C)O)C(C)C)C(C)C [Analogue 3a] | > 20 µM | > 20 µM | 46.8 ± 0.6 µM | > 600 pmol/g | inactive |  |  |  | 
CC[C@H](C)[C@H](NC(=O)[C@@H](N)CC(C)C)C(=O)NCC(=O)N[C@@H](CC(C)C)C(=O)N[C@H](C(=O)N[C@@H](CO)C(=O)N[C@@H](CCCCN)C(=O)NCC(=O)N[C@H](C(=O)N[C@H]1CSSC[C@@H](C(=O)N[C@@H](CCCCN)C(=O)N[C@@H](CCCCN)C(=O)N[C@H](C(=O)N[C@@H](CC(C)C)C(=O)N[C@@H](CCCCN)C(=O)N[C@@H](CCC(N)=O)C(N)=O)C(C)C)NC(=O)[C@H](C(C)C)NC(=O)[C@H]([C@@H](C)O)NC(=O)[C@H](CCCCN)NC(=O)[C@H](C(C)C)NC(=O)[C@H](CC(C)C)NC(=O)[C@H](C(C)C)NC1=O)[C@@H](C)O)C(C)C [Analogue 4a] | > 15 µM | > 15 µM | 65.5 ± 5.5 µM | > 600 pmol/g | inactive |  |  |  | 
CC[C@H](C)[C@H](N)C(=O)N[C@@H](CC(=O)O)C(=O)N[C@@H](Cc1c[nH]c2ccccc12)C(=O)N[C@@H](CCCCN)C(=O)N[C@@H](CCCCN)C(=O)N[C@H](C(=O)N[C@@H](CC(=O)O)C(=O)N[C@@H](Cc1c[nH]c2ccccc12)C(=O)N[C@@H](CCCCN)C(=O)N[C@@H](CCCCN)C(=O)N[C@H](C(=O)N[C@@H](CO)C(=O)N[C@@H](CCCCN)C(=O)N[C@@H](CCCCN)C(=O)N[C@H](C(=O)N[C@H]1CSSC[C@@H](C(=O)N[C@@H](CCCCN)C(=O)N[C@@H](Cc2ccccc2)C(=O)N[C@@H](CC(C)C)C(N)=O)NC(=O)[C@H](C)NC(=O)[C@H](CCCCN)NC(=O)[C@H](CC(C)C)NC(=O)[C@H](CCSC)NC(=O)[C@H](C(C)C)NC(=O)[C@H](CCCCN)NC(=O)[C@@H](NC(=O)[C@@H](NC(=O)[C@H](CCCCN)NC(=O)[C@H](CCCCN)NC(=O)[C@H](CO)NC(=O)[C@@H](NC(=O)[C@H](CCCCN)NC(=O)[C@H](CCCCN)NC(=O)[C@H](Cc2c[nH]c3ccccc23)NC(=O)[C@H](CC(=O)O)NC(=O)[C@@H](NC(=O)[C@H](CCCCN)NC(=O)[C@H](CCCCN)NC(=O)[C@H](Cc2c[nH]c3ccccc23)NC(=O)[C@H](CC(=O)O)NC(=O)[C@@H](N)[C@@H](C)CC)C(C)C)C(C)C)[C@@H](C)O)CSSC[C@@H](C(=O)N[C@@H](CCCCN)C(=O)N[C@@H](Cc2ccccc2)C(=O)N[C@@H](CC(C)C)C(N)=O)NC(=O)[C@H](C)NC(=O)[C@H](CCCCN)NC(=O)[C@H](CC(C)C)NC(=O)[C@H](CCSC)NC(=O)[C@H](C(C)C)NC(=O)[C@H](CCCCN)NC1=O)[C@@H](C)O)C(C)C)C(C)C [Analogue 5a] |  |  |  | 415.4 ± 29.6 ^a pmol/g |  | activated all DRG cells and caused dye leakage | ≥ 10 µM |  | 
H-IDWKKVDWKKVSKKTSKVMLKASKFL-NH2 [Analogue 3b] | > 20 µM | > 20 µM | 64.9 ± 6.3 µM | > 600 pmol/g | inactive |  |  |  | 
H-LIGLVSKGTSVLVKTVSKKVLKQ-NH2 [Analogue 4b] | > 15 µM | > 15 µM | 61.3 ± 4.4 µM | > 600 pmol/g | inactive |  |  |  | 
cupiennin-1a: broadly cytolytic peptide from the wandering spider Cupiennius salei (GFGALFKFLAKKVAKTVAKQAAKQGAKYVVNKQME; ends and bridges not checked; UniProt P83619 1-35, looked up) |  |  |  |  |  |  |  | > 400 fold | 
β-diguetoxin-Dc1a |  |  |  |  |  |  |  |  | 59 pmol/g
ω-hexatoxin-Hv1a |  |  |  |  |  |  |  |  | 9 pmol/g
